Results: PubChem BioAssay AID1508591

Settings: rat; liver microsomes; pH 7.4; 15.0 min; 1.0 µM

Structure (SMILES) | half-life [min]
CCOC(=O)N1CCN(Cc2nc3cc(NC(=O)c4ccc(OC)cc4)ccc3n2C(C)C)CC1 | 26
Cc1cc(C)c(C(=O)Nc2cccc([S+](=O)([O-])N3CCCCCC3)c2)[nH]1 | 1.7
CCOc1ccc(CCNC(=O)c2cc3ccccc3n2Cc2cc(C)cc(C)n2)cc1OCC | 1.7
Cc1ccc(S(=O)(=O)Nc2ccccc2C(=O)Nc2cnc(-c3ccccc3)cn2)cc1 | 3.5
Clc1cccc(COc2cncc(N3CCNCC3)n2)c1 | 2.55
Cc1ccccc1N(C)C1CN([S+](=O)([O-])c2cccc(C(F)(F)F)c2)C1 | 1.98
COc1ccc(-c2ccc3c(N4CCOC[C@@H]4C)nc(N4CCOC[C@@H]4C)nc3n2)cc1CO | > 30
CC1Oc2cc3c(-c4c(O)cc(O)c5c(O)c6c(cc45)OC(C)C(C)C6=O)c(O)cc(O)c3c(O)c2C(=O)C1C (stereo not drawn) | > 30
COc1ccc(CCn2c(N)cc(=O)[nH]c2=S)cc1OC | > 30
Cc1ccc(S(=O)(=O)Nc2ccccc2C(=O)Nc2ccc(-c3ccccc3)cc2)cc1 | 7.3
Fc1ccc(Nc2nc(-c3ccncc3)cc3ccccc23)cc1F | 24
CC(=O)N1CCc2cc(-c3nc(NC(=O)Cc4ccc5c(c4)OCO5)sc3C)ccc21 | 20
O=C(O)c1cccc(-n2cccc2/C=C2/NC(=O)N(c3cccc(Cl)c3)C2=O)c1 | > 30
CCCCCN(CCC12CC3CC(CC(C3)C1)C2)C(=O)NCCCc1ccncc1 | 3.7
CC(=O)c1cccc(-c2csc3ncnc(Sc4nnnn4C)c23)c1 | 3.08
Cc1ccc(S(=O)(=O)Nc2ccccc2C(=O)Nc2nc(-c3ccccc3)c(Br)s2)cc1 | 10
Fc1ccc(N2CCCN(CC3[C@H]4CNC[C@@H]34)CC2)cc1 (stereo partly drawn) | > 30
O=C(Nc1nnc(-c2cccs2)o1)c1ccc(Cl)cc1 | 2.9
Fc1cc(Nc2nc(-c3ccncc3)nc3ccccc23)ccc1-c1cccnc1 | 17
CNc1nc(-c2ccc3c(N)n[nH]c3c2)cc(N2C[C@@H](C(=O)NC3CCCCC3)CC[C@@H]2C)n1 | 1.85
CC(Nc1ncnc2c1cnn2-c1cccc(Cl)c1)c1ccccc1 (stereo not drawn) | 23
Cc1ccccc1C(=O)n1ccc2cc(-c3nc(NC(=O)Cc4ccc5c(c4)OCO5)sc3C)ccc21 | > 30
CC(=O)c1c(C)oc2ccc(N(C(=O)Oc3ccccc3)S(=O)(=O)c3ccccc3)cc12 | 1.48
Cc1ccc(NC(=O)N(Cc2cn(C)c3ccccc23)C2CCCCC2)cc1C | 1.95
COc1ccc2[nH]c(=O)c(-c3noc(-c4ccc(F)cc4)n3)cc2c1 | > 30
O=[N+]([O-])c1cccnc1N/N=C/c1ccccc1O | 7.7

Structure (SMILES) | half-life [min]
Cc1cc(-c2nnc3n2CCCCC3)c(C)n1-c1ccc(C(F)(F)F)cc1 | 2.1
OCc1ccc(-c2cc3c(ccn3Cc3cccnc3)c(C3=CCOCC3)n2)cc1 | 4.89
Cc1ccc(OCCn2c(CCNC(=O)c3ccc(Cl)cc3)nc3ccccc32)cc1 | 1.8
O=[S+]([O-])(Nc1ccc(C2CCNCC2)cc1)c1ccc(NCc2ccc(Br)cc2O)cc1 | > 30
Cn1c(CN2CCCC2)nc2cc(NC(=O)COc3ccc(Cl)cc3)ccc21 | 8.4
O=S(=O)(Nc1nc2ccccc2s1)c1ccc(NCc2cccc(Cl)c2O)cc1 | > 30
COc1ccc(NC(=O)c2ccccc2)cc1S(=O)(=O)Nc1ccc(Br)cc1 | 7.7
Cc1ccc(S(=O)(=O)Nc2cnccc2C(=O)NCCc2ccccc2)cc1 | 4.9
c1cc(-c2cc(-c3ccncc3)c3cncn3c2)c2cc[nH]c2c1 | 5.63
COc1cccc(CN2CCNc3cc(Nc4ccccc4)ncc3C2)c1 | 1.58
CC(=O)Nc1nc(-c2ccc3c(c2)CCN3C(=O)c2ccccc2C)c(C)s1 | 18
O=C(Nc1nnc(-c2ccco2)o1)c1ccc(Cl)cc1 | 10.8
COc1ccc(-c2ccc(C(=O)NC3CC(c4cc(=O)[nH]c(N)n4)C3)o2)cc1 (stereo not drawn) | > 30
Cc1cc(-c2nnc3n2CCCCC3)c(C)n1-c1ccc(C(C)(C)C)cc1 | 1.9
CC(C)(C)n1cnc2cc(C(=O)N3CCCCC3)ccc21 | 9.7
CN1CCCC1CCOC(c1cc2nccc(C(=O)O)c2[nH]1)c1ccccc1Cl (stereo not drawn) | > 30
NC(=O)COc1cccc(C2CC(=O)Nc3nc(N4CCCCC4)sc32)c1 (stereo not drawn) | 5.1
CN(C)c1cccc(-c2nccc(N3CCC(C(N)=O)CC3)n2)c1 | 8.43
COc1ccc(-n2nc(C)c([C@@H]3C=C[C@@H](NCc4cccc(Cl)c4)C3)c2C)cc1 | 4.19
N#Cc1cccc(S(=O)(=O)Nc2cnccc2C(=O)Nc2nc(-c3ccccc3)cs2)c1 | 14
OCc1cccc(-c2cc(-c3cccnc3)c3cncn3c2)c1 | 22
Cc1noc(C)c1S(=O)(=O)Nc1cnccc1C(=O)Nc1nc(-c2ccccc2)cs1 | > 30
CCn1c(SCc2ccc(C#N)cc2)nnc1-c1cccc(Cl)c1 | 3
CC1CCc2cc(F)ccc2N1C(=O)CSc1nnc2c(n1)[nH]c1ccccc12 (stereo not drawn) | 2.02
O=C(Nc1ccc([S+](=O)([O-])Nc2nccs2)cc1)c1ncn[nH]1 | > 30
CC(C)(C)c1ccc(-c2ccc(=O)n(CC(=O)NCCc3ccccc3)n2)cc1 | 1.6

Structure (SMILES) | half-life [min]
O=C(Nc1ncc(Cc2ccc(C(F)(F)F)cc2)s1)c1ccco1 | > 30
CCOC(=O)N1CCN(C(=O)Cn2sc3nc(C)cc(C)c3c2=O)CC1 | > 30
COc1cccc(CC(=O)Nc2nc(-c3ccc4c(c3)CCN4C(=O)c3ccccc3C)c(C)s2)c1 | 19
O=C(CCS(=O)(=O)c1nc(-c2cccs2)cc(C(F)(F)F)n1)Nc1ccc(OC(F)(F)F)cc1 | 2.45
COc1cccc(C(=O)Nc2cccc(OCc3cc(=O)n4cccc(C)c4n3)c2)c1 | 3.17
CCOc1ccc(CCNC(=O)c2cc3sccc3n2CCN(C)C)cc1OCC | 1.6
CC(C)(C)c1ccc(C(=O)N2CC(=O)Nc3ccc(F)cc3C2c2ccc(F)cc2)cc1 (stereo not drawn) | 8.57
FC(F)(F)c1ccc(N2CCN(C(=S)Nc3ccccn3)CC2)cc1 | > 30
Fc1ccc(Oc2nc(-c3ccncc3)nc3ccccc23)cc1F | 15
COc1cccc(CNc2ccc(S(=O)(=O)Nc3ncccn3)cc2)c1O | > 30
CC(C)n1cc(-c2ccc3c(c2)N(C)CC3)c2c(NS(=O)(=O)c3ccn(C)n3)ccnc21 | 1.07
CC(=O)NC(c1cccs1)c1cc(Br)c2cccnc2c1O (stereo not drawn) | 5.21
C[S+](=O)([O-])N1CCC(Cn2ccc3c(N4CCOCC4)nc(-c4cccc5[nH]ccc45)cc32)CC1 | 15.9
NC(=O)C1CCN(c2nc(-c3ccc(Br)cc3)cs2)CC1 | 2.06
CCn1c(C(=O)NCCc2ccc(OC)cc2)cc2sccc21 | 1.9
O=C(CNC12CC3CC(CC(C3)C1)C2)c1ccc(Cl)cc1 | 2.2
COc1cccc(CNC(=O)CCCn2nc(C)c3c(C)n(-c4ccc(C)cc4)nc3c2=O)c1OC | 1.07
Cc1cc(-c2nnc3n2CCCCC3)c(C)n1-c1cccnc1 | 15
CCOC(=O)c1c(NC(=O)CN2CCCCC2)sc2c1CCN(C(=O)OCC)C2 | 5.2
Cc1ccc(-c2cc(C(=O)Nc3ccc(S(=O)(=O)N(C)Cc4nccs4)cc3)c3ccccc3n2)cc1C | 4.1
Cc1ccc(S(=O)(=O)Nc2cnccc2C(=O)Nc2nc(-c3ccc(Oc4ccccc4)cc3)cs2)cc1 | 6.9
COC(=O)c1sccc1NC(=O)c1sccc1C | 1.46
CCC(CC)c1cc([C@H]2CN3CC[C@H]2C[C@@H]3CNC(=O)Cc2cccs2)nc(-c2ccncc2)n1 | 2.78
O=S(=O)(Nc1cnc2ccccc2c1)c1ccc(NCc2ccc(Br)cc2O)cc1 | 18
O=C(Nc1nnc(-c2ccc(Cl)cc2)o1)c1ccc(Cl)c(Cl)c1 | 3.9
C[C@H]1CN(C(=O)c2nn(C)c3ccccc23)C[C@@H]1c1nc(-c2ccncc2)no1 | 5.01

Structure (SMILES) | half-life [min]
NC(=O)C1CCN(c2nc(-c3ccc(OCc4ccccc4)cc3)cs2)CC1 | 18.3
O=C(NC1CC1)c1nc(-c2cccnc2)c2cnccn12 | > 30
CC1=C(C(=O)Nc2nccs2)C(c2ccccc2Br)N=C(Nc2nc3ccccc3o2)N1 (stereo not drawn) | 27
CC1CCc2ccc(F)cc2N1S(=O)(=O)c1cccs1 (stereo not drawn) | 2.7
Cc1cc(C)c(CNC(=O)c2nc(-c3cccc(CO)c3)cc3c2ccn3C)c(=O)[nH]1 | 8.11
COc1ccc(-c2nc3ccccc3c(=O)n2Cc2ccco2)cc1COc1ccc(NC(C)=O)cc1 | 2.17
COc1ccc(C(=O)Nc2nc(-c3ccccc3)cs2)c(NS(=O)(=O)c2ccc(C)cc2)c1 | 6.5
CCn1c(=NC(=O)c2ccc(S(=O)(=O)N3CCCCC3)cc2)sc2cccc(OC)c21 | 9.5
O=S(=O)(Nc1nccs1)c1ccc(NCc2cccc(Br)c2O)cc1 | 14
c1ccc(Nc2cc3c(cn2)CN(Cc2cccs2)CCN3)cc1 | 1.77
CN1CCN(C(c2ccccc2)c2ccc(Cl)cc2)CC1 (stereo not drawn) | 3
Fc1ccc(-c2ccc(Nc3nc(-c4ccncc4)nc4ccccc34)cc2F)cc1 | > 30
CC(C)c1ccc(-n2ncc3c(=O)n(CC(=O)Nc4cc(F)ccc4Cl)cnc32)cc1 | 20
COc1ccc(OC)c(-c2nnc3n2N=C(c2c(OC)cccc2OC)CS3)c1 | 1.4
CCOC(=O)N1CCN(Cc2nc3cc(NC(=O)CC(C)C)ccc3n2C(C)C)CC1 | > 30
O=C(O)c1ccnc2cc(C(OCC3CCC(F)(F)CC3)c3ccccc3Cl)[nH]c12 (stereo not drawn) | > 30
O=C1CCCC2=C1C1(CCCC1)N=C(Nc1nc3ccccc3o1)N2 | 2.7
OCCOCCN1CCN(C(c2ccccc2)c2ccc(Cl)cc2)CC1 (stereo not drawn) | 5.93
CCC[C@@H]1CN(C(=O)c2ccc(-c3ccc(C)o3)cc2)C[C@H]1NC(C)=O | 13.2
CCc1ccc(-n2nc(C)c3c2NC(=O)CSC3c2ccccc2C)cc1 (stereo not drawn) | 2.44
Cc1cc(-c2nnc3n2CCCCC3)c(C)n1-c1cccc(C#N)c1 | 8.1
COc1ccc(CNC(=O)c2sc3nc(C)cc(C)c3c2N)cc1 | 8.47
CC(=O)c1c(C)[nH]c(C(=O)Nc2cccc([S+](=O)([O-])Nc3ccccc3C)c2)c1C | 4.4
COc1cccc(CNc2ccc(S(=O)(=O)Nc3nc(C)cs3)cc2)c1O | > 30
CCc1cc(Cl)c(OC)c(C(=O)NC[C@@H]2CCCN2CC)c1O | 1.71
